Assay results reported in patent publication US20250154198A1, “PEPTIDE INHIBITORS OF INTERLEUKIN-23 RECEPTOR” (Zealand Pharma A/S, priority 2021, published 2025).
Read-outs that look alike come from different tables or passages of the source. *1 amine or outer side, *2 acyl side, *3 side chain or, on linkers, in order; H or OH if unused. Where a SMILES comes first, the peptide text is derived from it. Bridges are numbered along the chain shown (N, C = ends). [ ]: non-standard residue; d: D form. Bip = N[C@@H](Cc1ccc(-c2ccccc2)cc1)C(=O)O; 2Nal = N[C@@H](Cc1ccc2ccccc2c1)C(=O)O; AEF = NCCOc1ccc(C[C@H](N)C(=O)O)cc1; αMeL = CC(C)C[C@](C)(N)C(=O)O; CH2COCH2 = O=C(C[*:1])C[*:2]

Legend:
[1] = molecular target: T1, human IL-23R (Homo sapiens, UniProt Q5VWK5); assay: Binding assay (NanoBRET displacement of fluorophore-labelled reference compound) for estimating binding affinity to human IL-23R; conditions: for IL-23R inhibitory activity (in words): with reference to Ki and IC50 data of the Examples
T1 construct: UniProtKB—Q5VWK5, amino acids 22-629; secretion signal of the plasmid (Promega N1371); expressed in transfected cells
T1 sequence (Q5VWK5 22-629): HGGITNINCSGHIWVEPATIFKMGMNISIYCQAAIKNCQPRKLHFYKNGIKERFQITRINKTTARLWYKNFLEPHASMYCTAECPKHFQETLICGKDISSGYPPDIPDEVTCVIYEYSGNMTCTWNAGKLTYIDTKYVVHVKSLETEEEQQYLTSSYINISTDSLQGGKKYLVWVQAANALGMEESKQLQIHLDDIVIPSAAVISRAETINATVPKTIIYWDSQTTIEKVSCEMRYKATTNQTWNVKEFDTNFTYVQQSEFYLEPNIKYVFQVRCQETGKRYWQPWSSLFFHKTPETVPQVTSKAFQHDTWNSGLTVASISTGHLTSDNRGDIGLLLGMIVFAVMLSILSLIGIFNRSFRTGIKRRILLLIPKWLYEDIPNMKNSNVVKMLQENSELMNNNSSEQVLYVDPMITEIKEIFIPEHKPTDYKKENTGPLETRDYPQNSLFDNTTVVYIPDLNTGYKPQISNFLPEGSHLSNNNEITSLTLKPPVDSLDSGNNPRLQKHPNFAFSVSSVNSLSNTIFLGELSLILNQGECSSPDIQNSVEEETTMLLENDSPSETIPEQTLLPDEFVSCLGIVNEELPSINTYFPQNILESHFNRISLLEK

[2] = molecular target: IL-23 mediated phospho-STAT3 formation in DB cells (Homo sapiens, UniProt Q5VWK5); assay: Functional inhibition of IL-23 mediated STAT3 signalling (phospho-STAT3 Tyr705 MSD) in DB cells; assay type: cell-based
Source text: Functional Inhibition of IL-23 Mediated STAT3 Signalling by Compounds
Upon binding of IL-23, the IL-23R forms a heterodimer signalling complex together with IL-12R β1, which through the JAK2/STAT3 pathway promotes phosphorylation of STAT3 to form phospho-STAT3.
The assay was used to quantify the functional antagonism of a compound and to rank order the inhibitor compounds according to their potency. For compounds tested in this assay, the response was normalized relative to control values to calculate the IC50 and maximal inhibitory response from a concentration response curve of the compound in presence of a fixed concentration of human IL-23.
The assay procedure was as follows. […] Following preincubation of the DB cells with inhibitor for 15 min in a cell incubator (37° C., 5% CO2), 20 μL of the prepared 3× the EC80 of hIL-23 solution was added to each well and incubated for 90 min in a cell incubator (37° C., 5% CO2). For some wells buffer only or IL-23 only corresponding to the EC80 was added to obtain readouts needed for normalization. To terminate the assay, the plate was spun at 1000 G for 5 min to pellet cells, the supernatant removed using an 8-channel manual pipette, and then added 50 μL/well Complete Lysis Buffer from the MSD STAT3 kit (Cat #K150SVD, Mesoscale) to the cell pellet. To completely lyse cells to release phospho-STAT3 for detection, the plate was shaken for 10 min at room temperature (500 rpm) sealed with aluminum foil and placed at −80° C. for a minimum of 15 min. Detection of the phospho-STAT3 level in the cell lysate from the individual wells was determined using the MSD STAT3 kit (Cat #K150SVD, Mesoscale) and read on a Meso QuickPlex SQ 120 plate reader (Mesoscale).
For data analysis raw data counts from the Meso QuickPlex SQ 120 plate reader were normalized relative to the response by the EC80 of hIL-23 alone (no compound added) and the buffer level. Compound potency (IC50) and maximal inhibitory response (% inhibition) were estimated by computer-aided curve fitting using a 4-parameter logistic (4PL) non-linear model.

[3] = Table 3-1, read-out: Ki hIL-23R
[4] = Table 3-1, DB cells, read-out: IC50 (pSTAT3)

SMILES	Ki [1, 3] [nM]	IC50 [2, 4] [nM]	Ki [1] [nM]	IC50 [2] [nM]	also measured
CC(=O)N[C@H]1CCCCNC(=O)CC[C@@H](C(=O)N[C@@H](CCCNC(=N)N)C(N)=O)NC(=O)[C@H](CC(C)C)NC(=O)[C@H](Cc2ccc3ccccc3c2)NC(=O)[C@H](Cc2c[nH]c3ccccc23)NC(=O)[C@@H]2CSCC(=O)CSC[C@H](NC(=O)[C@H](CO)NC1=O)C(=O)N[C@@H](Cc1ccc(-c3ccccc3)cc1)C(=O)N[C@@H](CCC(N)=O)C(=O)N2 [Compound 26, [Ac]-K(1c)SC(2a)[Bip]QC(2a)W[2-Nal]LE(1c)R-[NH2]] (Ac-KSC[Bip]QCW[2Nal]LER-NH2; lactam 1-10; linker 3-6 via CH2COCH2)	> 1000	> 1000	–	–	–
CC(=O)N[C@H]1CCCCNC(=O)CC[C@@H](C(=O)N[C@@H](CCCNC(=N)N)C(N)=O)NC(=O)[C@H](CC(C)C)NC(=O)[C@H](Cc2ccc3ccccc3c2)NC(=O)[C@H](Cc2ccc(OCCN)cc2)NC(=O)[C@@H]2CSCC(=O)CSC[C@H](NC(=O)[C@H](CO)NC1=O)C(=O)N[C@@H](Cc1c[nH]c3ccccc13)C(=O)N[C@@H](CCC(N)=O)C(=O)N2 [Compound 29, [Ac]-K(1c)SC(2a)WQC(2a)[Y(2-aminoethoxy)][2-Nal]LE(1c)R-[NH2]] (Ac-KSCWQC[AEF][2Nal]LER-NH2; lactam 1-10; linker 3-6 via CH2COCH2)	0.68	–	–	–	Ki ([1]; Table 2-9b, read-out: Ki IL-23R): 0.64 nM; IC50 ([2]; Table 2-9b, DB cells, read-out: IC50 (pSTAT3)): 19.7 nM
CC(C)C[C@@H]1NC(=O)[C@H](Cc2ccc3ccccc3c2)NC(=O)[C@H](Cc2c[nH]c3ccccc23)NC(=O)[C@@H]2CSCC(=O)CSC[C@H](NC(=O)[C@H](CO)NC(=O)CCNC(=O)CC[C@@H](C(=O)N[C@@H](CCCNC(=N)N)C(N)=O)NC1=O)C(=O)N[C@@H](Cc1c[nH]c3ccccc13)C(=O)N[C@@H](CCC(N)=O)C(=O)N2 [Compound 36, [bAla](1c)*SC(2a)WQC(2a)W[2-Nal]LE(1c)R-[NH2]] (HELM PEPTIDE1{[bAla].S.C.W.Q.C.W.[O=C([C@H](Cc1ccc2ccccc2c1)N[*:1])[*:2]].L.E.R.[am]}|CHEM1{[O=C(C[*:1])C[*:2]]}$PEPTIDE1,CHEM1,3:R3-1:R1|PEPTIDE1,CHEM1,6:R3-1:R2|PEPTIDE1,PEPTIDE1,1:R1-10:R3$$$V2.0)	> 1000	> 1000	–	–	–
CC(=O)N[C@@H](CC(=O)O)C(=O)N[C@H]1CSCC(=O)CSC[C@@H](C(=O)N[C@@H](CCCNC(=N)N)C(N)=O)NC(=O)[C@](C)(CC(C)C)NC(=O)[C@H](Cc2c[nH]c3ccccc23)NC(=O)[C@H](Cc2ccc3ccccc3c2)NC(=O)[C@@H]2CSCC(=O)CSC[C@H](NC(=O)[C@H](CCC(N)=O)NC1=O)C(=O)N[C@@H](Cc1c[nH]c3ccccc13)C(=O)N[C@@H](CCC(N)=O)C(=O)N2 [Compound 62, [Ac]-DC(1a)QC(2a)WQC(2a)[2-Nal]W[2-Me-Leu]C(1a)R-[NH2]] (Ac-DCQCWQC[2Nal]W[αMeL]CR-NH2; linker 2-11, 4-7 via CH2COCH2)	–	–	> 1000	> 1000	–
CC(=O)N[C@@H](CC(=O)O)C(=O)N[C@H]1CSCC(=O)CSC[C@@H](C(=O)N[C@@H](CCCNC(=N)N)C(N)=O)NC(=O)[C@](C)(CC(C)C)NC(=O)[C@H](Cc2c[nH]c3ccccc23)NC(=O)[C@H](Cc2ccc(O)cc2)NC(=O)[C@@H]2CSCC(=O)CSC[C@H](NC(=O)[C@H](CCC(N)=O)NC1=O)C(=O)N[C@@H](Cc1c[nH]c3ccccc13)C(=O)N[C@@H](CCC(N)=O)C(=O)N2 [Compound 63, [Ac]-DC(1a)QC(2a)WQC(2a)YW[2-Me-Leu]C(1a)R-[NH2]] (Ac-DCQCWQCYW[αMeL]CR-NH2; linker 2-11, 4-7 via CH2COCH2)	–	–	> 1000	> 1000	–
CC(C)C[C@@H]1NC(=O)[C@H](Cc2c[nH]c3ccccc23)NC(=O)[C@H](Cc2c[nH]c3ccccc23)NC(=O)[C@@H]2CSSC[C@H](NC(=O)[C@H](CO)NC(=O)[C@@H](NC(=O)[C@@H](N)CC(=O)O)CSSC[C@@H](C(=O)N[C@@H](CCCNC(=N)N)C(N)=O)NC1=O)C(=O)N[C@@H](Cc1c[nH]c3ccccc13)C(=O)N[C@@H](CCC(N)=O)C(=O)N2 [Ref 1, H-DC(1b)SC(2b)WQC(2b)WWLC(1b)R-[NH2], reference compound]	–	–	> 1000	> 1000	IL-23R inhibitory activity (in words) [1]: inactive; IC50 ([2]; read-out: IC50 (pSTAT3), Table 3-1, DB cells): > 1000 nM
CC(C)C[C@@H]1NC(=O)[C@H](Cc2c[nH]c3ccccc23)NC(=O)[C@H](Cc2c[nH]c3ccccc23)NC(=O)[C@H](CO)NC(=O)[C@H](CCC(N)=O)NC(=O)[C@H](Cc2c[nH]c3ccccc23)NC(=O)[C@H](CO)NC(=O)[C@H](CO)NC(=O)[C@@H](NC(=O)[C@@H](N)CC(=O)O)CCC(=O)NCCCC[C@@H](C(=O)N[C@@H](CCCNC(=N)N)C(N)=O)NC1=O [Ref 2, reference compound] (HELM PEPTIDE1{D.E.S.S.W.Q.S.W.W.L.K.R.[am]}$PEPTIDE1,PEPTIDE1,2:R3-11:R3$$$V2.0)	> 1000	> 1000	–	–	–
CC(C)C[C@@H]1NC(=O)[C@H](Cc2c[nH]c3ccccc23)NC(=O)[C@H](Cc2c[nH]c3ccccc23)NC(=O)[C@H](Cc2ccc(O)cc2)NC(=O)[C@H](CCC(N)=O)NC(=O)[C@H](Cc2c[nH]c3ccccc23)NC(=O)[C@H]([C@@H](C)O)NC(=O)[C@H](CO)NC(=O)[C@@H](NC(=O)[C@@H](N)CC(=O)O)CCC(=O)NCCCC[C@@H](C(=O)N[C@@H](CCCNC(=N)N)C(N)=O)NC1=O [Ref 3, reference compound] (HELM PEPTIDE1{D.E.S.T.W.Q.Y.W.W.L.K.R.[am]}$PEPTIDE1,PEPTIDE1,2:R3-11:R3$$$V2.0)	> 1000	> 1000	–	–	–
CSCC[C@@H]1NC(=O)[C@H](CO)NC(=O)[C@@H](NC(=O)[C@H](CC(=O)O)NC(C)=O)CCC(=O)NCCCC[C@@H](C(=O)N[C@@H](CCCNC(=N)N)C(N)=O)NC(=O)[C@H](CC(C)C)NC(=O)[C@H](Cc2c[nH]c3ccccc23)NC(=O)[C@H](Cc2c[nH]c3ccccc23)NC(=O)[C@H](CCSC)NC(=O)[C@H](CCC(N)=O)NC(=O)[C@H](Cc2c[nH]c3ccccc23)NC1=O [Ref 4, reference compound] (HELM PEPTIDE1{[ac].D.E.S.M.W.Q.M.W.W.L.K.R.[am]}$PEPTIDE1,PEPTIDE1,3:R3-12:R3$$$V2.0)	> 1000	> 1000	–	–	–
CC(=O)N[C@@H](CC(=O)O)C(=O)N[C@H]1CCC(=O)NCCCC[C@@H](C(=O)N[C@@H](CCCNC(=N)N)C(N)=O)NC(=O)[C@H](Cc2c[nH]c3ccccc23)NC(=O)[C@H](Cc2c[nH]c3ccccc23)NC(=O)[C@@H]2CSCC(=O)CSC[C@H](NC(=O)[C@H](CO)NC1=O)C(=O)N[C@@H](Cc1c[nH]c3ccccc13)C(=O)N[C@@H](CCC(N)=O)C(=O)N2 [Ref 7, [Ac]-DE(1c)SC(2a)WQC(2a)WWK(1c)R-[NH2], reference compound] (HELM PEPTIDE1{[ac].D.E.S.C.W.Q.C.W.W.K.R.[am]}|CHEM1{[O=C(C[*:1])C[*:2]]}$PEPTIDE1,PEPTIDE1,3:R3-11:R3|PEPTIDE1,CHEM1,5:R3-1:R1|PEPTIDE1,CHEM1,8:R3-1:R2$$$V2.0)	> 1000	> 1000	–	–	IL-23R inhibitory activity (in words) [1]: inactive
